What is called IC50 is the midpoint of a concentration-inhibition curve.

Data on 35 compounds can be found in patent publication US20250136553A1, “ACYLSULFONAMIDE KAT6A INHIBITORS” (Olema Pharmaceuticals, Inc., priority 2023, published 2025).

Sequence of human-KAT6A (MYST domain 507-778 aa) (Q92794 507-778): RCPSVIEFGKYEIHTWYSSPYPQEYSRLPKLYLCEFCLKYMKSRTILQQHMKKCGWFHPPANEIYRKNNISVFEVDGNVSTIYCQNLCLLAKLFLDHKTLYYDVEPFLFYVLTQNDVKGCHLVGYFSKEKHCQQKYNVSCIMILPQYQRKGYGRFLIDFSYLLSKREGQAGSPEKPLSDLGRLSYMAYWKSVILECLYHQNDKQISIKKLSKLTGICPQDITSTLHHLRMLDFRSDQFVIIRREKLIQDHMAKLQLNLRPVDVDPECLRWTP

One assay addresses human-KAT6A (MYST domain 507-778 aa) (Homo sapiens (Human), UniProt Q92794). The experiment in a line: KAT6A biochemical assay (TR-FRET). The conditions noted are these: @ 1 μM; reported where IC50 could not be determined; read-out: Percent inhibition at specific concentration (KAT6A). Put shortly: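 KAT6A MYST domain preincubated with compound 30 min at 25° C, then reacted 60 min at 25° C with 200 nM biotin-H4 peptide and 600 nM acetyl-CoA (final). Europium anti-acetyl-lysine/streptavidin-APC TR-FRET read (Ex 340, Em 615/665 nm); % inhibition from 665/615 ratio, IC50 by sigmoidal fit.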
Consider `COc1nc(C(=O)N[S@](=N)(=O)c2ccccc2F)ccc1Cn1cccn1` [Compound 307b, (S)-5-((1H-pyrazol-1-yl)methyl)-N-(2-fluorophenylsulfonimidoyl)-6-methoxypicolinamide], for which the inhibition at 1 µM is 46%.

The same assay, now with this note: @ 10 μM; reported where IC50 could not be determined; read-out: Percent inhibition at specific concentration (KAT6A).
Consider `COc1cc(Cn2cccn2)cc(C(=O)NS(=O)(=O)c2c(OC)cccc2OC)c1` [Compound 6, 3-((1H-pyrazol-1-yl)methyl)-N-((2,6-dimethoxyphenyl)sulfonyl)-5-methoxybenzamide], for which the inhibition at 10 µM was 26%.

Staying with this assay, now noted: TR-FRET; histone H4 peptide 200 nM, acetyl-CoA 600 nM; read-out: KAT6A IC50.
Take `COc1ccc(C(C)(C)C)cc1S(=O)(=O)NC(=O)c1ccc(Cn2cccn2)c(C)c1` [Compound 20, 4-((1H-pyrazol-1-yl)methyl)-N-((5-(tert-butyl)-2-methoxyphenyl)sulfonyl)-3-methylbenzamide]: the IC50 was found to be 39 nM. On the same count and under the same terms, next, `COc1nc(C(=O)NS(=O)(=O)c2cc(C(C)(C)C)cc3c2OCC3)ccc1Cn1cccn1` [Compound 280, 5-((1H-pyrazol-1-yl)methyl)-N-((5-(tert-butyl)-2,3-dihydrobenzofuran-7-yl)sulfonyl)-6-methoxypicolinamide]: 5 nM; `COc1cccc(OC)c1S(=O)(=O)NC(=O)c1ccc(Cn2cccn2)c(OC(F)(F)F)c1` [Compound 33, 4-((1H-pyrazol-1-yl)methyl)-N-((2,6-dimethoxyphenyl)sulfonyl)-3-(trifluoromethoxy)benzamide]: 10 nM; `COc1ccc(C(C)(C)C)cc1S(=O)(=O)NC(=O)c1ccc(Cn2cccn2)c(F)c1` [Compound 13, 4-((1H-pyrazol-1-yl)methyl)-N-((5-(tert-butyl)-2-methoxyphenyl)sulfonyl)-3-fluorobenzamide]: 47 nM.

Take `COc1cccc(OC)c1S(=O)(=O)NC(=O)c1ccc(Cn2cccn2)c(Br)c1F` [Compound 49, 4-((1H-pyrazol-1-yl)methyl)-3-bromo-N-((2,6-dimethoxyphenyl)sulfonyl)-2-fluorobenzamide]: the 50% inhibitory concentration (IC50) was found to be 8 nM. Still for that read-out and setting: next, `COc1cc(C(=O)NS(=O)(=O)c2c(OC)cccc2OC)cnc1Cn1cccn1` [Compound 202, 6-((1H-pyrazol-1-yl)methyl)-N-((2,6-dimethoxyphenyl)sulfonyl)-5-methoxynicotinamide]: 104 nM; `COc1ccc(C)c(OC)c1[S@@](=N)(=O)NC(=O)c1ccc(Cn2cccn2)c(OC)n1` [Compound 301b, (S)-5-((1H-pyrazol-1-yl)methyl)-N-(2,6-dimethoxy-3-methylphenylsulfonimidoyl)-6-methoxypicolinamide]: 17 nM. Same read-out and setting: next, `CCc1ccc(OC)c(S(=O)(=O)NC(=O)c2ccc(Cn3cccn3)cc2OC)c1` [Compound 3, 4-((1H-pyrazol-1-yl)methyl)-N-((5-ethyl-2-methoxyphenyl)sulfonyl)-2-methoxybenzamide]: 137 nM; `COc1ccccc1S(=O)(=O)NC(=O)c1ccc(Cn2cccn2)c(OC)n1` [Compound 208, 5-((1H-pyrazol-1-yl)methyl)-6-methoxy-N-((2-methoxyphenyl)sulfonyl)picolinamide]: 22 nM; `COc1cccc(OC)c1S(=O)(=O)NC(=O)c1ccc(Cn2cccn2)c(C(F)F)n1` [Compound 231, 5-((1H-pyrazol-1-yl)methyl)-6-(difluoromethyl)-N-((2,6-dimethoxyphenyl)sulfonyl)picolinamide]: 14 nM. On the same count and under the same terms, as for `COc1cccc(OC2CCC2)c1S(=N)(=O)NC(=O)c1ccc(Cn2cccn2)c(OC)n1` (centres unmarked) [Compound 261, 5-((1H-pyrazol-1-yl)methyl)-N-(2-cyclobutoxy-6-methoxyphenylsulfonimidoyl)-6-methoxypicolinamide], the figure is 38 nM; as for `COc1cc(C(=O)NS(=N)(=O)c2c(OC)cccc2OC)ccc1Cn1cccn1` (centres unmarked) [Compound 71, 4-((1H-pyrazol-1-yl)methyl)-N-(2,6-dimethoxyphenylsulfonimidoyl)-3-methoxybenzamide], 34 nM; as for `COc1ccc(C(C)(C)CO)cc1S(=O)(=O)NC(=O)c1ccc(Cn2cccn2)c(OC)n1` [Compound 266, 5-((1H-Pyrazol-1-yl)methyl)-N-((5-(1-hydroxy-2-methylpropan-2-yl)-2-methoxyphenyl)sulfonyl)-6-methoxypicolinamide], 10 nM. For `COc1cc(C(=O)NS(=O)(=O)c2c(OC)cccc2OC)ccc1COc1ncccn1` [Compound 50, N-((2,6-dimethoxyphenyl)sulfonyl)-3-methoxy-4-((pyrimidin-2-yloxy)methyl)benzamide], the concentration for half-maximal inhibition (IC50) stood at 96 nM. Same read-out and setting: as for `COc1cccc(OC2CCC2)c1[S@](=N)(=O)NC(=O)c1ccc(Cn2cccn2)c(OC)n1` [Compound 298a, (R)-5-((1H-pyrazol-1-yl)methyl)-N-(2-cyclobutoxy-6-methoxyphenylsulfonimidoyl)-6-methoxypicolinamide], the figure is 23 nM; as for `COc1cc(C(=O)NS(=O)(=O)c2c(OC)ccc(C)c2OC)ccc1Cn1cccn1` [Compound 60, 4-((1H-pyrazol-1-yl)methyl)-N-((2,6-dimethoxy-3-methylphenyl)sulfonyl)-3-methoxybenzamide], 8 nM. Regarding `COc1ccc(Cl)c(OC)c1[S@@](=N)(=O)NC(=O)c1ccc(Cn2cccn2)c(OC)n1` [Compound 293b, (S)-5-((1H-pyrazol-1-yl)methyl)-N-(3-chloro-2,6-dimethoxyphenylsulfonimidoyl)-6-methoxypicolinamide], the IC50 turned out to be 16 nM.

As for `COc1cc(C#Cc2cccnc2)cc(OC)c1S(=O)(=O)NC(=O)c1ccc(Cn2cccn2)c(OC)n1` [Compound 269, 5-((1H-Pyrazol-1-yl)methyl)-N-((2,6-dimethoxy-4-(pyridin-3-ylethynyl)phenyl)sulfonyl)-6-methoxypicolinamide], the IC50 is 12 nM. On the same count and under the same terms, next, `COc1cc(OC)c([S@](=N)(=O)NC(=O)c2ccc(Cn3cccn3)c(OC)n2)c(OC)c1` [Compound 296a, (R)-5-((1H-pyrazol-1-yl)methyl)-6-methoxy-N-(2,4,6-trimethoxyphenylsulfonimidoyl)picolinamide]: 16 nM; `COc1cccc(F)c1[S@](=N)(=O)NC(=O)c1ccc(Cn2cccn2)c(OC)n1` [Compound 305a, (R)-5-((1H-pyrazol-1-yl)methyl)-N-(2-fluoro-6-methoxyphenylsulfonimidoyl)-6-methoxypicolinamide]: 15 nM. As to `COc1cc(C(=O)NS(=O)(=O)c2c(OC)cccc2OC2CC2)ccc1Cn1cccn1` [Compound 52, 4-((1H-pyrazol-1-yl)methyl)-N-((2-cyclopropoxy-6-methoxyphenyl)sulfonyl)-3-methoxybenzamide], the IC50 is 9 nM. On the same count and under the same terms, next, `CCc1ccc(OC)c(S(=O)(=O)NC(=O)c2ncc(Cn3cccn3)c(OC)n2)c1` [Compound 271, 5-((1H-Pyrazol-1-yl)methyl)-N-((5-ethyl-2-methoxyphenyl)sulfonyl)-4-methoxypyrimidine-2-carboxamide]: 37 nM; `COc1cc(C(=O)NS(=O)(=O)c2c(OC)cccc2OC)ncc1Cn1cccn1` [Compound 212, 5-((1H-pyrazol-1-yl)methyl)-N-((2,6-dimethoxyphenyl)sulfonyl)-4-methoxypicolinamide]: 140 nM; `COc1cc(OC)c(S(=O)(=O)NC(=O)c2ccc(Cn3cccn3)c(OC)c2)c(OC)c1` [Compound 47, 4-((1H-pyrazol-1-yl)methyl)-3-methoxy-N-((2,4,6-trimethoxyphenyl)sulfonyl)benzamide]: 9 nM. For `COc1cc(F)c(S(=O)(=O)NC(=O)c2ccc(Cn3cccn3)c(OC)n2)c(OC)c1` [Compound 288, 5-((1H-pyrazol-1-yl)methyl)-N-((2-fluoro-4,6-dimethoxyphenyl)sulfonyl)-6-methoxypicolinamide], the 50% inhibitory concentration (IC50) stood at 8 nM. Same read-out and setting: as for `COc1cccc(OC)c1S(=O)(=O)NC(=O)c1ccc(Cn2cccn2)c(F)c1` [Compound 12, 4-((1H-pyrazol-1-yl)methyl)-N-((2,6-dimethoxyphenyl)sulfonyl)-3-fluorobenzamide], the figure is 48 nM; as for `COc1cccc(OC)c1S(=O)(=O)NC(=O)c1ccc(Cn2cccn2)c(OC(F)F)c1` [Compound 37, 4-((1H-pyrazol-1-yl)methyl)-3-(difluoromethoxy)-N-((2,6-dimethoxyphenyl)sulfonyl)benzamide], 10 nM; as for `COc1nc(C(=O)NS(=O)(=O)c2cccc(C(C)(C)O)c2)ccc1Cn1cccn1` [Compound 237, 5-((1H-pyrazol-1-yl)methyl)-N-((3-(2-hydroxypropan-2-yl)phenyl)sulfonyl)-6-methoxypicolinamide], 44 nM.

For the compound `COc1ccc(C(C)(C)C)cc1S(=O)(=O)NC(=O)c1ccc(Cn2cccn2)c(OC)n1` [Compound 205, 5-((1H-pyrazol-1-yl)methyl)-N-((5-(tert-butyl)-2-methoxyphenyl)sulfonyl)-6-methoxypicolinamide], the half-inhibitory concentration (IC50) is 8 nM.

Regarding `COc1ccc2c(c1S(=O)(=O)NC(=O)c1ccc(Cn3cccn3)c(OC)n1)OCC2` [Compound 211, 5-((1H-pyrazol-1-yl)methyl)-6-methoxy-N-((6-methoxy-2,3-dihydrobenzofuran-7-yl)sulfonyl)picolinamide], the IC50 stood at 8 nM.

Turning to `COc1cc(C(=O)N[S@](=N)(=O)c2c(OC)cccc2OC)ccc1Cn1cccn1` [Compound 295b, (S)-4-((1H-pyrazol-1-yl)methyl)-N-(2,6-dimethoxyphenylsulfonimidoyl)-3-methoxybenzamide], the IC50 was 271 nM. For `COc1cccc(OC)c1S(=N)(=O)NC(=O)c1ccc(Cn2cccn2)c(OC)n1` (single isomer, unassigned) [Compound 243b], the half-maximal inhibitory concentration (IC50) worked out at 82 nM. Still for that read-out and setting: next, `COc1ccc(S(=N)(=O)NC(=O)c2ccc(Cn3cccn3)c(OC)n2)c(OC)c1` (centres unmarked) [Compound 262, 5-((1H-pyrazol-1-yl)methyl)-N-(2,4-dimethoxyphenylsulfonimidoyl)-6-methoxypicolinamide]: 115 nM.
